Experimental data published in ChEMBL document CHEMBL1201862, “PubChem BioAssay data set” (2004).
Active and inactive are the calls of the source. No stated cut-off is given here; in the data, actives have a measured IC50 and inactives only a lower limit.

Molecular target: Envelope glycoprotein gp160 (Human immunodeficiency virus 1, UniProt Q6QLK5)
Test: inhibitors of HIV fusion peptide binding, primary screen, biochemical, uHTS, fluorescence dequenching (AID 1986)

Sequence of Envelope glycoprotein gp160 (Q6QLK5 whole entry, the tested form may be a part): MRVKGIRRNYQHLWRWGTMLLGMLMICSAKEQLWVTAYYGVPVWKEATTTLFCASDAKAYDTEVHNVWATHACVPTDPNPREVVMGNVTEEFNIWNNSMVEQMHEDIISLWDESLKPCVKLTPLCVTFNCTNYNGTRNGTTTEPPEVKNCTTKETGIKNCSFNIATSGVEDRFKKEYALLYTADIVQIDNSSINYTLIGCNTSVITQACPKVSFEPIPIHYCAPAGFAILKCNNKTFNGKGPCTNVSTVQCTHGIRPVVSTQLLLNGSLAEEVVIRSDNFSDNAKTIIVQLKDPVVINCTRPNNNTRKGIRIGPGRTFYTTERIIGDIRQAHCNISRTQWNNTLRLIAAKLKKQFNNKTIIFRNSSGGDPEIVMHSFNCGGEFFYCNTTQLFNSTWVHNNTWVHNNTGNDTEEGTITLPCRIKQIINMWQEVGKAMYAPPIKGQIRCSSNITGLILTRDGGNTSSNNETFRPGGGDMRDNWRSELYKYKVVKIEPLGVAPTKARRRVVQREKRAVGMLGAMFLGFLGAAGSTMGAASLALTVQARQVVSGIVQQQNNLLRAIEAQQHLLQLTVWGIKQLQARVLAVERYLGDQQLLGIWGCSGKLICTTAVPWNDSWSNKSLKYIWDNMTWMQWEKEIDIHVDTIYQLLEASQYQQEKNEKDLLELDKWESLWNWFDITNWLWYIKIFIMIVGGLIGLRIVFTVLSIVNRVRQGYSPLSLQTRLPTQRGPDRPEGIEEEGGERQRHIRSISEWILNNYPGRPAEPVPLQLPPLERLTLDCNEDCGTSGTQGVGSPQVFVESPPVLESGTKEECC

O=C(O)CN1C(=O)/C(=C\c2cc(Br)ccc2OCc2ccc(Cl)cc2Cl)SC1=S
IC50: 13.1 µM (active)

NS(=O)(=O)c1cc(C(=O)NC2CCSc3ccccc32)ccc1Cl (centres undefined)
IC50: 8.22 µM (active)

CC(C)(C)c1ccc(OCC(=O)NNC(=S)NC(=O)c2ccccc2[N+](=O)[O-])c(Br)c1
IC50: 28.7 µM (active)

CCCCCC(=O)Cc1cc(O)cc2c1C(=O)Oc1cc(O)c(C(=O)O)c(CCCCC)c1O2 [PHYSODIC ACID]
IC50: 4.1 µM (active)
